Assay results published in patent US7074596B2, “Synthesis and use of anti-reverse mRNA cap analogues” (Board of Supervisors of Louisiana State University And …, priority 2002, dated 2006).

Key:
[1] = target: T1, elF4E (Oryctolagus cuniculus, UniProt P29338); test: Competitive inhibition of cell-free translation of globin mRNA in the RRL system; format: biochemical, rabbit; settings: FIG. 3
T1 construct: A micrococcal nuclease-treated RRL (rabbit reticulocyte lysate) system was used for in vitro translation; from tissue; host or cells: rabbit reticulocyte lysate, micrococcal nuclease-treated
T1 sequence (P29338 whole entry): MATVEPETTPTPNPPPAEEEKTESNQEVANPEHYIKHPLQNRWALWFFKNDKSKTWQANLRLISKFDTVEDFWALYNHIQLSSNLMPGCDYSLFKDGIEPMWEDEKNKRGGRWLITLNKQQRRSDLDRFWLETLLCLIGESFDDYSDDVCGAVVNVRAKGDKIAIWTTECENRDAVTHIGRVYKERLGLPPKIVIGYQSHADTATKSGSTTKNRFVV
Protocol: The ability of cap analogues to inhibit cell-free translation in the RRL system programmed with globin mRNA was measured as described in Cai et al. (1999). Data were fit by least squares minimization to a theoretical rate equation.
We separately tested GpppG, m^7GpppG, and the two ARCAs for their ability to compete with natural globin mRNA for recognition by the translational machinery, and thereby to inhibit translation in an RRL system. […] Natural rabbit globin mRNA was translated at 5 μg/mL in the RRL system, and globin synthesis was detected by incorporation of [^3H]Leu into protein.

[2] = target: T2, SP6 polymerase (Enterobacteria phage SP6, UniProt P06221); test: Analysis of cap orientation in in vitro-synthesized RNA transcripts by RNase T2 + TAP digestion and anion exchange HPLC; format: biochemical, bacteriophage SP6; settings: for Product observed RNase T2 + TAP: pGp* (normal orientation of the cap) / Product observed RNase T2 + TAP: 7-methylated pGp* product (reverse orientation of the cap): short RNA (43 bases) from Ncol-digested pSP-luc+, [α-32P]ATP, share of 5′ end labeled digestion product; for Orientation of incorporation into RNA (in words): RNase T2 and TAP digestion, HPLC, FIG. 2
T2 construct: purchased Promega
T2 sequence (P06221 1-874): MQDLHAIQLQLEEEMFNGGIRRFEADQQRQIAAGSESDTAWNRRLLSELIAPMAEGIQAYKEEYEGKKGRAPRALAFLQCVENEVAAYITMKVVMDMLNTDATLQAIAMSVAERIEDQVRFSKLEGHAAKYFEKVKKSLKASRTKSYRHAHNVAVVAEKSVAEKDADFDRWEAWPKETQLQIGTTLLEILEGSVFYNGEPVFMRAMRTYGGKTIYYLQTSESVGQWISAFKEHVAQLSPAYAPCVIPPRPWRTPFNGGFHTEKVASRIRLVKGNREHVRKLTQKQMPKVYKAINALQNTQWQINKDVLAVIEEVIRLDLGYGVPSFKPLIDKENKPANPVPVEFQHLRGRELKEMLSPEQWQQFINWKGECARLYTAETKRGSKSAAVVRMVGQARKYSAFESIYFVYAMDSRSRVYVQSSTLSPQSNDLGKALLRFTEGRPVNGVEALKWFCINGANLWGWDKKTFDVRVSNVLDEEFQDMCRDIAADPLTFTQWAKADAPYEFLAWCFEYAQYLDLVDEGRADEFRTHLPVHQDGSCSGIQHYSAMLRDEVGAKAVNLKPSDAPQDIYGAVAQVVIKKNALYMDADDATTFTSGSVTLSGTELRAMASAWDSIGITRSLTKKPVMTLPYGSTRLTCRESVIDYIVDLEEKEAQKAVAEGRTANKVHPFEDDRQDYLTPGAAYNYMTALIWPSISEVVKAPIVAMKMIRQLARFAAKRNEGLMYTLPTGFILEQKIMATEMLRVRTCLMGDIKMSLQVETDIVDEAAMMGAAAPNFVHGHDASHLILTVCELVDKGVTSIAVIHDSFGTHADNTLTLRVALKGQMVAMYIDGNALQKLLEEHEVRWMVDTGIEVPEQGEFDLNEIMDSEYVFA
Protocol: Mono- and dinucleotides obtained by enzymatic digestion of in vitro-synthesized RNAs were analyzed by HPLC using a Waters 625 instrument with a 996 PDA detector on a 4.5×250 mm Partisil 10SAX/25 column (Whatman). The program for elution of nucleotides comprised water for the first 5 min; a linear gradient of […]; a linear gradient of 87.5 to 500 mM of KH2PO4 over 30 min; and isocratic elution at 500 mM KH2PO4 for 21 min—all at a flow rate of 1 mL/min.
Two lengths of RNA, either uncapped or capped with one of the cap analogues, were synthesized by in vitro transcription. The DNA template used for both lengths of RNA was pSP−luc+ (Promega), which contains an SP6 bacteriophage promoter and a sequence encoding luciferase. To generate the short RNAs (43 bases exclusive of the cap), the plasmid was digested with Ncol. To generate the long RNAs (1706 bases, containing the entire luciferase coding region), the plasmid was digested with EcoRl. A typical 20 μL in vitro transcription reaction contained 40 mM Tris-HCl, pH 7.9, 6 mM MgCl2, 2 mM spermidine, 10 mM DTT, 2 μg BSA, 20 units of RNasin (Promega), 0.5 mM ATP, 0.5 mM CTP, 0.5 mM UTP, 0.1 mM GTP, 1 mM cap analogue (GpppG, m7GpppG, m^73′dGpppG, or m2^7,O3′GpppG), 0.2–1.0 μg DNA, and 20 units of SP6 polymerase (Promega). Reactions to synthesize the short RNAs also contained 28 μCi of [α-^32P]ATP (ICN), and those to synthesize the long RNAs contained 0.8 μCi of [α-^32P]CTP (ICN). Reaction mixtures were incubated for 60 min at 37° C., extracted with phenol and chloroform, and the solution was made 2 M in sodium acetate. The nucleic acids were then precipitated with 3 volumes of ethanol on dry ice for 5 min, and the mixture was centrifuged at 14,000 rpm for 30 min. The resulting pellet was dissolved in water, and the solution was made 0.2 M in sodium acetate. The nucleic acid was precipitated with 2.5 volumes of ethanol at 4° C. for 30 min, and the mixture was centrifuged at 14,000 rpm for 30 min. The pellet was allowed to air-dry and then dissolved in diethylpyrocarbonate-treated water.
The short RNAs were digested with 67 U RNase T2 (Life Technologies) in 15 μL of 0.14 M sodium acetate, pH 4.6, at 37° C. for 60 min. In some cases, the RNAs were subjected to a two-step digestion instead. The first digestion was with 10 U TAP (tobacco acid pyrophosphatase) (Epicentre Technologies) in 5 μL of 50 mM sodium acetate, pH 6.0, 1 mM EDTA, 0.1% β-mercaptoethanol, and 0.01% Triton X-100 at 37° C. for 60 min. The digestion was continued for 60 min at 37° C. with 67 U RNase T2 in a final volume of 16 μL of 0.12 M sodium acetate, pH 4.6. Samples were analyzed without further treatment by anion exchange HPLC as described above.
The structure of the ARCAs was designed to prevent incorporation into RNA in the reverse orientation. […] To obtain a higher proportion of radioactivity in the cap versus the internal positions, a shorter DNA template was produced by cleaving pSP−luc+ with Ncol instead of EcoRl. This digestion was expected to yield an RNA product of 43 bases (plus the cap).
RNase T2 digests RNA with no base specificity. Thus, it was expected to generate primarily 3′-NMPs from this RNA. Those nucleotide residues that were located 5′ to an A residue would acquire a ^32P-labeled 3′-phosphate by nearest-neighbor transfer. The pyrophosphate bonds in the cap, however, are not susceptible to RNase T2. Since the first nucleotide residue after the cap in the synthetic RNA is an A, the α-phosphate of [α-^32P]ATP would be transferred to the cap following RNase T2 digestion.

[3] = system: RRL (rabbit reticulocyte lysate) system; test: Translation of capped luciferase mRNAs in the RRL system (luciferase activity); format: biochemical; settings: translated 60 min in RRL, slope of luciferase activity versus mRNA concentration, FIG. 4
Text: Two lengths of RNA, either uncapped or capped with one of the cap analogues, were synthesized by in vitro transcription. The DNA template used for both lengths of RNA was pSP−luc+ (Promega), which contains an SP6 bacteriophage promoter and a sequence encoding luciferase. To generate the short RNAs (43 bases exclusive of the cap), the plasmid was digested with Ncol. To generate the long RNAs (1706 bases, containing the entire luciferase coding region), the plasmid was digested with EcoRl. […]
A micrococcal nuclease-treated RRL (rabbit reticulocyte lysate) system was used for in vitro translation as described in A. Cai et al., “Quantitative assessment of mRNA cap analogs as inhibitors of in vitro translation,” Biochemistry, vol.38, pp. 8538–8547 (1999). In some cases, the mRNA used in this system was natural rabbit globin mRNA, and protein synthesis was measured by incorporation of [^3H]Leu into a trichloroacetic acid-precipitable form. […]
FIG. 4 depicts the translational activity of the ARCA-capped mRNAs. […] The RNAs were translated for 60 min in the RRL system, and luciferase activity was measured in triplicate by luminometry (RLU, relative light units). […]

Compound	Inhibition of translation (in words) ([1]; natural rabbit globin mRNA in RRL system)	Product observed RNase T2 + TAP: pGp* (normal orientation of the cap) [2] [%]	Ki ([1]; natural rabbit globin mRNA 5 μg/mL, [3H]Leu incorporation, least-squares fit of translation data, read-out: Kl, dissociation constant for the cap analogue•elF4E complex) [µM]	Extent of reverse capping ([2]; experiments of FIG. 2 and Table 3)	Product observed RNase T2 + TAP: 7-methylated pGp* product (reverse orientation of the cap) [2] [%]	Translational efficiency of capped luciferase mRNA (in words) [3]	Orientation of incorporation into RNA (in words) [2]
Nc1nc2c(ncn2[C@@H]2O[C@H](COP(=O)(O)OP(=O)(O)OP(=O)(O)OC[C@H]3O[C@@H](n4cnc5c(=O)[nH]c(N)nc54)[C@H](O)[C@@H]3O)[C@@H](O)[C@H]2O)c(=O)[nH]1 [GpppG, reference compound]	did not act as an inhibitor	100					
Cn1c[n+](C2OC(COP(=O)(O)OP(=O)(O)OP(=O)(O)OCC3OC(n4cnc5c(=O)[nH]c(N)nc54)C(O)C3O)C(O)C2O)c2nc(N)nc([O-])c21 (centres unmarked) [m^7GpppG, m^7G(5′)ppp(5′)G, reference compound]		67	27.8 ± 12.6	approximately 33%	33		
CO[C@H]1[C@@H](O)[C@H](n2c[n+](C)c3c(=O)[nH]c(N)nc32)O[C@@H]1COP(=O)(O)OP(=O)(O)OP(=O)(O)OC[C@H]1O[C@@H](n2cnc3c(=O)[nH]c(N)nc32)[C@H](O)[C@@H]1O [m2^7,O3′GpppG, P^1-3′-O, 7-Dimethylguanosine-5′P^3-guanosine-5′triphosphate]		100			0	more efficient in translation than m^7GpppG-capped mRNA	incorporated in only one orientation
C[n+]1cn([C@@H]2O[C@H](COP(=O)(O)OP(=O)(O)OP(=O)(O)OC[C@H]3O[C@@H](n4cnc5c(=O)[nH]c(N)nc54)[C@H](O)[C@@H]3O)C[C@H]2O)c2nc(N)[nH]c(=O)c21 [m^73′dGpppG, P^1-3′-Deoxy-7-methylguanosine-5′ P^3-guanosine-5′triphosphate]		100			0	more efficient in translation than m^7GpppG-capped mRNA	incorporated in only a single orientation
